{"source": "patent US20190142737A1", "about": "“SUBLINGUAL SPRAY FORMULATION COMPRISING DIHYDROARTEMESININ” (LondonPharma Ltd., priority 2009, published 2019)", "key": {"[1]": {"conditions": "humans, cited from earlier work"}, "[2]": {"conditions": "animals, cited from earlier work"}, "[3]": {"experiment": "Impurities of artemether in solvent systems after eight weeks storage (HPLC)", "type": "physicochemical", "conditions": "in contact with water, ethanol, or propellants for aerosol formulations", "source_text": "Tables 1 and 2 show impurities present in Artemether API, and artemether in three solvent systems: 20% ethanol+80% propellant; 50% ethanol+50% propellant; 100% ethanol; and a medium chain triglyceride, in this case, the triglyceride sold under the registered trade mark Miglyol® 810. Miglyol® is a medium chain triglyceride containing saturated C8 and C10 fatty acids, typically between 65-80% of caprylic acid (C8:0) and 20-35% of capric acid (C10:0). The propellant used in these test was 1,1,1,2 tetrafluoroethane, sold under the registered trade mark Zephex® 134a. Similar results were obtained for the propellants butane, Zephex® 227 (1,1,1,2,3,3,3 heptafluoropropane) and for a mixture of butane and propane. […] In all other cases, the impurities are at levels that exceed those permitted under the ICH Harmonised Tripartite Guidelines for Impurities in New Drug Products without specific identification or further toxicological examination."}}, "note": "Like-named read-outs stand apart in the source and are kept apart here."}
{"smiles": "CO[C@H]1O[C@@H]2O[C@@]3(C)CC[C@H]4[C@H](C)CC[C@@H]([C@H]1C)[C@@]24OO3", "note": "[artemether]", "values": [{"measurement": "Bioavailability", "setting": "[1]; intramuscular route", "value": 25, "unit": "%"}, {"measurement": "Bioavailability", "setting": "[1]; intrarectal route", "value": 35, "unit": "%"}, {"measurement": "Bioavailability", "setting": "[2]; intramuscular injection", "value": 54, "unit": "%"}, {"measurement": "Bioavailability", "setting": "[2]; oral administration", "value": "19-35%"}, {"measurement": "Stability of artemether (in words)", "setting": "[3]", "value": "not stable"}]}
